Patent publication US10646488B2 (Araxes Pharma LLC, priority 2016, dated 2020)

molecular target: T1, KRAS G12C 1-169, his-tagged protein, GDP-loaded (Homo sapiens, UniProt P01116, G12C); experiment: Covalent binding (% modification) to KRAS G12C by mass spectrometry; settings: covalent binding to KRAS G12C after a ten minute incubation period; further: test concentration or dose not given here
T1 construct: KRAS G12C 1-169, his-tagged protein, GDP-loaded

Compound	Binding %
C=CC(=O)N1[C@H](C)CN(c2nc(OCCN3CC(F)(F)C3)nc3c(F)c(-c4c(O)cccc4F)c(Cl)cc23)C[C@@H]1C [Compound 32, 1-((2R,6S)-4-(6-chloro-2-(2-(3,3-difluoroazetidin-1-yl)ethoxy)-8-fluoro-7-(2-fluoro-6-hydroxyphenyl)quinazolin-4-yl)-2,6-dimethyl-piperazin-1-yl) prop-2-en-1-one]	+++ (+++ indicates binding activity greater than 90%)
C=CC(=O)N1[C@H](C)CN(c2nc(N3CC(N(C)C)C3)nc3c(F)c(-c4c(O)cccc4F)c(Cl)cc23)C[C@@H]1C [Compound 67, 1-((2R,6S)-4-((S)-6-chloro-2-(3-(dimethylamino)azetidin-1-yl)-8-fluoro-7-(2-fluoro-6-hydroxyphenyl)quinazolin-4-yl)-2,6-dimethyl-piperazin-1-yl) prop-2-en-1-one]	+ (+ indicates binding activity up to 50%)
C=CC(=O)N1C[C@@H](C)N(c2nc(N3CC(N(C)C)C3)nc3c(F)c(-c4c(O)cccc4F)c(Cl)cc23)C[C@@H]1C [Compound 81, 1-((2S,5R)-4-(6-chloro-2-(3-(dimethylamino)azetidin-1-yl)-8-fluoro-7-(2-fluoro-6-hydroxyphenyl)quinazolin-4-yl)-2,5-dimethyl-piperazin-1-yl) prop-2-en-1-one]	+ (+ indicates binding activity up to 50%)
C=CC(=O)N1CCN(c2nc(N)nc3c(F)c(-c4c(O)cccc4F)c(Cl)cc23)[C@@H](C)C1 [Compound 4, 1-((3S)-4-(2-amino-6-chloro-8-fluoro-7-(2-fluoro-6-hydroxyphenyl)quinazolin-4-yl)-3-methylpiperazin-1-yl)prop-2-en-1-one]	++ (++ indicates binding activity from 50 to 90%)

same assay, conditions: covalent binding to KRAS G12C after a three minute incubation period

Compound	Binding %
C=CC(=O)N1C[C@H](C)N(c2nc(N3CC(N)C3)nc3c(F)c(-c4c(C)ccc5cn[nH]c45)c(Cl)cc23)C[C@H]1C [Compound 97, 1-((2R,5S)-4-(2-(3-aminoazetidin-1-yl)-6-chloro-8-fluoro-7-(6-methyl-1H-indazol-7-yl)quinazolin-4-yl)-2,5-dimethyl-piperazin-1-yl) prop-2-en-1-one]	++ (++ indicates binding activity from 50 to 90%)
C=CC(=O)N1C[C@H](C)N(c2nc(N3CC(N(C)CC)C3)nc3c(F)c(-c4c(C)ccc5[nH]ncc45)c(Cl)cc23)C[C@H]1C [Compound 119, 1-((2R,5S)-4-(6-chloro-2-(3-(ethyl(methyl)amino)azetidin-1-yl)-8-fluoro-7-(5-methyl-1H-indazol-4-yl)quinazolin-4-yl)-2,5-dimethyl-piperazin-1-yl) prop-2-en-1-one]	+ (+ indicates binding activity greater than 0% and up to 50%)
C=CC(=O)N1C[C@H](C)N(c2nc(N3CC(N(C)C(C)C)C3)nc3c(F)c(-c4c(C)ccc5[nH]ncc45)c(Cl)cc23)C[C@H]1C [Compound 123, 1-((2R,5S)-4-(6-chloro-8-fluoro-2-(3-(isopropyl (methyl)amino)azetidin-1-yl)-7-(5-methyl-1H-indazol-4-yl)quinazolin-4-yl)-2,5-dimethyl-piperazin-1-yl) prop-2-en-1-one]	+ (+ indicates binding activity greater than 0% and up to 50%)
C=CC(=O)N1C[C@H](C)N(c2nc(N3CC(N(C)C)C3)nc3c(F)c(-c4cc(Cl)ccc4F)c(Cl)cc23)C[C@H]1C [Compound 160, 1-((2R,5S)-4-(6-chloro-7-(5-chloro-2-fluoro-phenyl)-2-(3-(dimethylamino)azetidin-1-yl)-8-fluoroquinazolin-4-yl)-2,5-dimethyl-piperazin-1-yl) prop-2-en-1-one]	++ (++ indicates binding activity from 50 to 90%)
C=CC(=O)N1C[C@H](C)N(c2nc(N3CC(N(C)C4CC4)C3)nc3c(F)c(-c4c(C)ccc5cn[nH]c45)c(Cl)cc23)C[C@H]1C [Compound 133, 1-((2R,5S)-4-(6-chloro-2-(3-(cyclopropyl (methyl)amino)azetidin-1-yl)-8-fluoro-7-(6-methyl-1H-indazol-7-yl)quinazolin-4-yl)-2,5-dimethyl-piperazin-1-yl) prop-2-en-1-one]	++ (++ indicates binding activity from 50 to 90%)
C=CC(=O)N1C[C@H](C)N(c2nc(N3CC(C)(N(C)C)C3)nc3c(F)c(-c4c(C)ccc5cn[nH]c45)c(Cl)cc23)C[C@H]1C [Compound 124, 1-((2R,5S)-4-(6-chloro-2-(3-(dimethylamino)-3-methylazetidin-1-yl)-8-fluoro-7-(6-methyl-1H-indazol-7-yl)quinazolin-4-yl)-2,5-dimethyl-piperazin-1-yl) prop-2-en-1-one]	++ (++ indicates binding activity from 50 to 90%)
C=CC(=O)N1C[C@H](C)N(c2nc(N3CC(NC)C3)nc3c(F)c(-c4c(O)cccc4F)c(Cl)cc23)C[C@H]1C [Compound 96, 1-((2R,5S)-4-(6-chloro-8-fluoro-7-(2-fluoro-6-hydroxyphenyl)-2-(3-(methylamino)azetidin-1-yl)quinazolin-4-yl)-2,5-dimethyl-piperazin-1-yl) prop-2-en-1-one]	+++ (+++ indicates binding activity greater than 90%)
C=CC(=O)N1C[C@H](C)N(c2nc(N3CC(N(CC)CC)C3)nc3c(F)c(-c4c(O)cccc4F)c(Cl)cc23)C[C@H]1C (atropisomer, axis not shown) [Compound 175, 1-((2R,5S)-4-(6-chloro-2-(3-(diethylamino)azetidin-1-yl)-8-fluoro-7-((S)-2-fluoro-6-hydroxyphenyl)quinazolin-4-yl)-2,5-dimethyl-piperazin-1-yl) prop-2-en-1-one]	+++ (+++ indicates binding activity greater than 90%)
C=CC(=O)N1C[C@H](C)N(c2nc(OCCc3ncccn3)nc3c(F)c(-c4c(C)ccc5[nH]ncc45)c(Cl)cc23)C[C@H]1C [Compound 197, 1-((2R,5S)-4-(6-chloro-8-fluoro-7-(5-methyl-1H-indazol-4-yl)-2-(2-(pyrimidin-2-yl)ethoxy)quinazolin-4-yl)-2,5-dimethyl-piperazin-1-yl) prop-2-en-1-one]	+++ (+++ indicates binding activity greater than 90%)
C=CC(=O)N1C[C@H](C)N(c2nc(N3CC4(COC4)C3)nc3c(F)c(-c4c(O)cccc4F)c(Cl)cc23)C[C@H]1C [Compound 192, 1-((2R,5S)-4-(6-chloro-8-fluoro-7-(2-fluoro-6-hydroxyphenyl)-2-(2-oxa-6-azaspiro[3.3]heptan-6-yl)quinazolin-4-yl)-2,5-dimethyl-piperazin-1-yl) prop-2-en-1-one]	++ (++ indicates binding activity from 50 to 90%)
C=CC(=O)N1C[C@H](C)N(c2nc(N3CC(N(CC)CC)C3)nc3c(F)c(-c4c(O)cccc4F)c(Cl)cc23)C[C@H]1C (atropisomer, axis not shown) [Compound 176, 1-((2R,5S)-4-(6-chloro-2-(3-(diethylamino)azetidin-1-yl)-8-fluoro-7-((R)-2-fluoro-6-hydroxyphenyl)quinazolin-4-yl)-2,5-dimethyl-piperazin-1-yl) prop-2-en-1-one]	+ (+ indicates binding activity greater than 0% and up to 50%)
C=CC(=O)N1CCN(c2nc(N3CC(C)(N(C)C)C3)nc3c(F)c(-c4c(O)cccc4F)c(Cl)cc23)[C@@H](C)C1 [Compound 153, 1-((3S)-4-(6-chloro-2-(3-(dimethylamino)-3-methylazetidin-1-yl)-8-fluoro-7-(2-fluoro-6-hydroxyphenyl)quinazolin-4-yl)-3-methyl-piperazin-1-yl) prop-2-en-1-one]	+++ (+++ indicates binding activity greater than 90%)
